Test results reported in ChEMBL document CHEMBL1154276, “Discovery of highly potent novel antifungal azoles by structure-based rational design” (2009).
Converted amounts (≈) assume the structure as drawn.

How the values were obtained:
Format in all cases: functional
Trichophyton rubrum = assay: Antifungal activity against Trichophyton rubrum by serial dilution method after 7 days; details: 168 h
Aspergillus fumigatus = assay: Antifungal activity against Aspergillus fumigatus by serial dilution method after 7 days; details: 168 h
Cryptococcus neoformans [1] = assay: Selectivity ratio of compound MIC80 to voriconazole MIC80 for Cryptococcus neoformans
Candida albicans = assay: Antifungal activity against Candida albicans by serial dilution method after 24 hrs
Candida tropicalis = assay: Antifungal activity against Candida tropicalis by serial dilution method after 24 hrs
Nannizzia gypsea = assay: Antifungal activity against Microsporum gypseum by serial dilution method […]
Cryptococcus neoformans [2] = assay: Antifungal activity against Cryptococcus neoformans by serial dilution method after 72 hrs

CN(CCCCOc1ccccc1Br)CC(O)(Cn1cncn1)c1ccc(F)cc1F (centres undefined)
MIC80 (Trichophyton rubrum): 0.0625 µg/mL (≈ 0.126 µM) | MIC80 (Aspergillus fumigatus): > 64 µg/mL | Selectivity ratio (Cryptococcus neoformans [1]): 4 | MIC80 (Candida albicans): 0.0156 µg/mL (≈ 0.0315 µM) | MIC80 (Candida tropicalis): 0.0156 µg/mL (≈ 0.0315 µM) | MIC80 (Nannizzia gypsea): 0.0625 µg/mL (≈ 0.126 µM) | MIC80 (Cryptococcus neoformans [2]): 0.004 µg/mL (≈ 0.00807 µM)

Cc1ccc(OCCCCN(C)CC(O)(Cn2cncn2)c2ccc(F)cc2F)cc1 (centres undefined)
MIC80 (Trichophyton rubrum): 0.0156 µg/mL (≈ 0.0362 µM) | MIC80 (Aspergillus fumigatus): 16 µg/mL (≈ 37.2 µM) | MIC80 (Candida albicans): 0.0156 µg/mL (≈ 0.0362 µM) | MIC80 (Candida tropicalis): 0.004 µg/mL (≈ 0.00929 µM) | MIC80 (Nannizzia gypsea): 0.0625 µg/mL (≈ 0.145 µM) | MIC80 (Cryptococcus neoformans [2]): 0.0625 µg/mL (≈ 0.145 µM)

Cc1ccccc1OCCCCN(C)CC(O)(Cn1cncn1)c1ccc(F)cc1F (centres undefined)
MIC80 (Trichophyton rubrum): 0.0625 µg/mL (≈ 0.145 µM) | MIC80 (Aspergillus fumigatus): > 64 µg/mL | MIC80 (Candida albicans): 0.0625 µg/mL (≈ 0.145 µM) | MIC80 (Candida tropicalis): 0.0156 µg/mL (≈ 0.0362 µM) | MIC80 (Nannizzia gypsea): 0.0625 µg/mL (≈ 0.145 µM) | MIC80 (Cryptococcus neoformans [2]): 0.0156 µg/mL (≈ 0.0362 µM)

CN(CCCCOc1ccc(F)cc1)CC(O)(Cn1cncn1)c1ccc(F)cc1F (centres undefined)
MIC80 (Trichophyton rubrum): 0.0156 µg/mL (≈ 0.0359 µM) | MIC80 (Aspergillus fumigatus): 16 µg/mL (≈ 36.8 µM) | MIC80 (Candida albicans): 0.0156 µg/mL (≈ 0.0359 µM) | MIC80 (Candida tropicalis): 0.004 µg/mL (≈ 0.00921 µM) | MIC80 (Nannizzia gypsea): 0.0625 µg/mL (≈ 0.144 µM) | MIC80 (Cryptococcus neoformans [2]): 0.0625 µg/mL (≈ 0.144 µM)

CN(CCCCOc1ccc(Cl)cc1)CC(O)(Cn1cncn1)c1ccc(F)cc1F (centres undefined)
MIC80 (Trichophyton rubrum): 0.0625 µg/mL (≈ 0.139 µM) | MIC80 (Aspergillus fumigatus): 4 µg/mL (≈ 8.87 µM) | MIC80 (Candida albicans): 0.001 µg/mL (≈ 0.00222 µM) | MIC80 (Candida tropicalis): 0.001 µg/mL (≈ 0.00222 µM) | MIC80 (Nannizzia gypsea): 0.0156 µg/mL (≈ 0.0346 µM) | MIC80 (Cryptococcus neoformans [2]): 0.0156 µg/mL (≈ 0.0346 µM)

CN(CCCCOc1ccccc1Cl)CC(O)(Cn1cncn1)c1ccc(F)cc1F (centres undefined)
MIC80 (Trichophyton rubrum): 0.0625 µg/mL (≈ 0.139 µM) | MIC80 (Aspergillus fumigatus): > 64 µg/mL | MIC80 (Candida albicans): 0.0156 µg/mL (≈ 0.0346 µM) | MIC80 (Candida tropicalis): 0.0156 µg/mL (≈ 0.0346 µM) | MIC80 (Nannizzia gypsea): 0.0625 µg/mL (≈ 0.139 µM) | MIC80 (Cryptococcus neoformans [2]): 0.0156 µg/mL (≈ 0.0346 µM)

CN(CCCCOc1ccc(C(C)(C)C)cc1)CC(O)(Cn1cncn1)c1ccc(F)cc1F (centres undefined)
MIC80 (Trichophyton rubrum): 0.0625 µg/mL (≈ 0.132 µM) | MIC80 (Aspergillus fumigatus): > 64 µg/mL | MIC80 (Candida albicans): 0.0625 µg/mL (≈ 0.132 µM) | MIC80 (Candida tropicalis): 0.0625 µg/mL (≈ 0.132 µM) | MIC80 (Nannizzia gypsea): 0.0625 µg/mL (≈ 0.132 µM) | MIC80 (Cryptococcus neoformans [2]): 0.25 µg/mL (≈ 0.529 µM)

Cc1cccc(OCCCCN(C)CC(O)(Cn2cncn2)c2ccc(F)cc2F)c1 (centres undefined)
MIC80 (Trichophyton rubrum): 0.0625 µg/mL (≈ 0.145 µM) | MIC80 (Aspergillus fumigatus): 64 µg/mL (≈ 149 µM) | MIC80 (Candida albicans): 0.0156 µg/mL (≈ 0.0362 µM) | MIC80 (Candida tropicalis): 0.0156 µg/mL (≈ 0.0362 µM) | MIC80 (Nannizzia gypsea): 0.0625 µg/mL (≈ 0.145 µM) | MIC80 (Cryptococcus neoformans [2]): 0.0625 µg/mL (≈ 0.145 µM)

CN(CCCCOc1cccc(N)c1)CC(O)(Cn1cncn1)c1ccc(F)cc1F (centres undefined)
MIC80 (Trichophyton rubrum): 0.25 µg/mL (≈ 0.579 µM) | MIC80 (Aspergillus fumigatus): > 64 µg/mL | MIC80 (Candida albicans): 0.0156 µg/mL (≈ 0.0362 µM) | MIC80 (Candida tropicalis): 0.0156 µg/mL (≈ 0.0362 µM) | MIC80 (Nannizzia gypsea): 0.0625 µg/mL (≈ 0.145 µM) | MIC80 (Cryptococcus neoformans [2]): 0.25 µg/mL (≈ 0.579 µM)

CN(CCCCOc1ccc(OCc2ccccc2)cc1)CC(O)(Cn1cncn1)c1ccc(F)cc1F (centres undefined)
MIC80 (Trichophyton rubrum): 0.0625 µg/mL (≈ 0.12 µM) | MIC80 (Aspergillus fumigatus): 32 µg/mL (≈ 61.2 µM) | MIC80 (Candida albicans): 0.0156 µg/mL (≈ 0.0299 µM) | MIC80 (Candida tropicalis): 0.0156 µg/mL (≈ 0.0299 µM) | MIC80 (Nannizzia gypsea): 0.0156 µg/mL (≈ 0.0299 µM) | MIC80 (Cryptococcus neoformans [2]): 0.0156 µg/mL (≈ 0.0299 µM)

COc1ccc(OCCCCN(C)CC(O)(Cn2cncn2)c2ccc(F)cc2F)cc1 (centres undefined)
MIC80 (Trichophyton rubrum): 0.0156 µg/mL (≈ 0.0349 µM) | MIC80 (Aspergillus fumigatus): 16 µg/mL (≈ 35.8 µM) | MIC80 (Candida albicans): 0.0156 µg/mL (≈ 0.0349 µM) | MIC80 (Candida tropicalis): 0.004 µg/mL (≈ 0.00896 µM) | MIC80 (Nannizzia gypsea): 0.0625 µg/mL (≈ 0.14 µM) | MIC80 (Cryptococcus neoformans [2]): 0.0625 µg/mL (≈ 0.14 µM)

CN(CCCCOc1ccc(Br)cc1)CC(O)(Cn1cncn1)c1ccc(F)cc1F (centres undefined)
MIC80 (Trichophyton rubrum): 0.0156 µg/mL (≈ 0.0315 µM) | MIC80 (Aspergillus fumigatus): 4 µg/mL (≈ 8.07 µM) | Selectivity ratio (Cryptococcus neoformans [1]): 4 | MIC80 (Candida albicans): 0.001 µg/mL (≈ 0.00202 µM) | MIC80 (Candida tropicalis): 0.001 µg/mL (≈ 0.00202 µM) | MIC80 (Nannizzia gypsea): 0.0156 µg/mL (≈ 0.0315 µM) | MIC80 (Cryptococcus neoformans [2]): 0.004 µg/mL (≈ 0.00807 µM)

CN(CCCCOc1cccc(Br)c1)CC(O)(Cn1cncn1)c1ccc(F)cc1F (centres undefined)
MIC80 (Trichophyton rubrum): 0.0625 µg/mL (≈ 0.126 µM) | MIC80 (Aspergillus fumigatus): 64 µg/mL (≈ 129 µM) | MIC80 (Candida albicans): 0.0625 µg/mL (≈ 0.126 µM) | MIC80 (Candida tropicalis): 0.001 µg/mL (≈ 0.00202 µM) | MIC80 (Nannizzia gypsea): 0.0156 µg/mL (≈ 0.0315 µM) | MIC80 (Cryptococcus neoformans [2]): 0.0625 µg/mL (≈ 0.126 µM)

CN(CCCCOc1cccc([N+](=O)[O-])c1)CC(O)(Cn1cncn1)c1ccc(F)cc1F (centres undefined)
MIC80 (Trichophyton rubrum): 0.0625 µg/mL (≈ 0.135 µM) | MIC80 (Aspergillus fumigatus): 64 µg/mL (≈ 139 µM) | MIC80 (Candida albicans): 0.0156 µg/mL (≈ 0.0338 µM) | MIC80 (Candida tropicalis): 0.004 µg/mL (≈ 0.00867 µM) | MIC80 (Nannizzia gypsea): 0.0625 µg/mL (≈ 0.135 µM) | MIC80 (Cryptococcus neoformans [2]): 0.0625 µg/mL (≈ 0.135 µM)

CN(CCCCOc1ccccc1[N+](=O)[O-])CC(O)(Cn1cncn1)c1ccc(F)cc1F (centres undefined)
MIC80 (Trichophyton rubrum): 0.0625 µg/mL (≈ 0.135 µM) | MIC80 (Aspergillus fumigatus): > 64 µg/mL | MIC80 (Candida albicans): 0.0625 µg/mL (≈ 0.135 µM) | MIC80 (Candida tropicalis): 0.0625 µg/mL (≈ 0.135 µM) | MIC80 (Nannizzia gypsea): 0.0625 µg/mL (≈ 0.135 µM) | MIC80 (Cryptococcus neoformans [2]): 0.25 µg/mL (≈ 0.542 µM)

CN(CCCCOc1ccc(N)cc1)CC(O)(Cn1cncn1)c1ccc(F)cc1F (centres undefined)
MIC80 (Trichophyton rubrum): 1 µg/mL (≈ 2.32 µM) | MIC80 (Aspergillus fumigatus): > 64 µg/mL | MIC80 (Candida albicans): 0.0625 µg/mL (≈ 0.145 µM) | MIC80 (Candida tropicalis): 0.0156 µg/mL (≈ 0.0362 µM) | MIC80 (Nannizzia gypsea): 0.25 µg/mL (≈ 0.579 µM) | MIC80 (Cryptococcus neoformans [2]): 0.25 µg/mL (≈ 0.579 µM)

CN(CCCCOc1ccc(OC(F)(F)F)cc1)CC(O)(Cn1cncn1)c1ccc(F)cc1F (centres undefined)
MIC80 (Trichophyton rubrum): 0.0156 µg/mL (≈ 0.0312 µM) | MIC80 (Aspergillus fumigatus): > 64 µg/mL | MIC80 (Candida albicans): 0.0156 µg/mL (≈ 0.0312 µM) | MIC80 (Candida tropicalis): 0.004 µg/mL (≈ 0.00799 µM) | MIC80 (Nannizzia gypsea): 0.0625 µg/mL (≈ 0.125 µM) | MIC80 (Cryptococcus neoformans [2]): 0.0625 µg/mL (≈ 0.125 µM)

CN(CCCCOc1ccc([N+](=O)[O-])cc1)CC(O)(Cn1cncn1)c1ccc(F)cc1F (centres undefined)
MIC80 (Trichophyton rubrum): 0.0625 µg/mL (≈ 0.135 µM) | MIC80 (Aspergillus fumigatus): 64 µg/mL (≈ 139 µM) | MIC80 (Candida albicans): 0.001 µg/mL (≈ 0.00217 µM) | MIC80 (Candida tropicalis): 0.004 µg/mL (≈ 0.00867 µM) | MIC80 (Nannizzia gypsea): 0.0156 µg/mL (≈ 0.0338 µM) | MIC80 (Cryptococcus neoformans [2]): 0.0156 µg/mL (≈ 0.0338 µM)

CN(CCCCOc1ccccc1N)CC(O)(Cn1cncn1)c1ccc(F)cc1F (centres undefined)
MIC80 (Trichophyton rubrum): 1 µg/mL (≈ 2.32 µM) | MIC80 (Aspergillus fumigatus): > 64 µg/mL | MIC80 (Candida albicans): 0.0625 µg/mL (≈ 0.145 µM) | MIC80 (Candida tropicalis): 0.0156 µg/mL (≈ 0.0362 µM) | MIC80 (Nannizzia gypsea): 0.25 µg/mL (≈ 0.579 µM) | MIC80 (Cryptococcus neoformans [2]): 1 µg/mL (≈ 2.32 µM)

OC(Cn1cncn1)(Cn1cncn1)c1ccc(F)cc1F [FLUCONAZOLE]
MIC80 (Trichophyton rubrum): 0.25 µg/mL (≈ 0.816 µM) | MIC80 (Aspergillus fumigatus): > 64 µg/mL | MIC80 (Candida albicans): 0.25 µg/mL (≈ 0.816 µM) | MIC80 (Candida tropicalis): 1 µg/mL (≈ 3.27 µM) | MIC80 (Nannizzia gypsea): 1 µg/mL (≈ 3.27 µM) | MIC80 (Cryptococcus neoformans [2]): 1 µg/mL (≈ 3.27 µM)

CCC(C)n1ncn(-c2ccc(N3CCN(c4ccc(OCC5COC(Cn6cncn6)(c6ccc(Cl)cc6Cl)O5)cc4)CC3)cc2)c1=O (centres undefined) [ITRACONAZOLE]
MIC80 (Trichophyton rubrum): 0.125 µg/mL (≈ 0.177 µM) | MIC80 (Aspergillus fumigatus): 2 µg/mL (≈ 2.83 µM) | MIC80 (Candida albicans): 0.125 µg/mL (≈ 0.177 µM) | MIC80 (Candida tropicalis): 0.0156 µg/mL (≈ 0.0221 µM) | MIC80 (Nannizzia gypsea): 0.125 µg/mL (≈ 0.177 µM) | MIC80 (Cryptococcus neoformans [2]): 0.5 µg/mL (≈ 0.709 µM)

C[C@@H](c1ncncc1F)[C@](O)(Cn1cncn1)c1ccc(F)cc1F [VORICONAZOLE]
MIC80 (Trichophyton rubrum): 0.0156 µg/mL (≈ 0.0447 µM) | MIC80 (Aspergillus fumigatus): 0.25 µg/mL (≈ 0.716 µM) | MIC80 (Candida albicans): 0.0156 µg/mL (≈ 0.0447 µM) | MIC80 (Candida tropicalis): 0.001 µg/mL (≈ 0.00286 µM) | MIC80 (Nannizzia gypsea): 0.0156 µg/mL (≈ 0.0447 µM) | MIC80 (Cryptococcus neoformans [2]): 0.0156 µg/mL (≈ 0.0447 µM)
